Laboratory results reported in EP4613273A1, “TREATMENT OF BONE LOSS” (priority 2024, dated 2025).
Structures can show the parent of a compound that is named as a salt.

Assay: Tolerance, hematology, biochemistry and calcium during 90-day treatment in dogs with periodontal disease
Format: in vivo
Set-up: Platelet: unit not given here
Settings: for Alanine transferase / Albumin / Albumin/Globulin ratio / Alkalin phosphatase / BUN/Creatinine ratio / Basophil / Creatinine / Eosinophil / Globulin / Glucose / HCT / HGB / Lymphocyte / MCH / MCHC / MCV / Monocyte / Neutrophil / Platelet / RBC / Reticulocyte / Total calcium / Total protein / Urea: mean
Description: The present study was performed on 10 Beagle dogs suffering from alveolar bone loss induced by spontaneously developed periodontal disease. All dogs were treated with MIV-701 besylate salt for minimum 30 day and maximum 90 days, depending on the tolerance at intermediate visits. The product is administrated to the dog by its owner at home, once a day with a meal.
There were two treatment groups: • Group A (5 dogs) with a dose of 25 mg/kg. • Group B (5 dogs) with a dose of 50 mg/kg.
Treatment was administrated for 90 days. Every 30 days, based on the results of clinical exam, blood parameters and potential occurrence of adverse events suspected to be drug-related, the treatment prolongation for another 30 days, or discontinuation of treatment was decided by the Investigator.
Whole blood sample for hematology analysis was collected at visit V1 (between Day -7 and Day 0), visit V3 (Day 30+3 days), Visit V4 (Day 60t 3 days) and Visit V5 (Day 90t 3 days).
The result from visit V1 (between Day -7 and Day 0) was used as a baseline value for the safety evaluation criteria.
Each time 1 ml of the peripheral whole blood was collected on a tube with anti-coagulant (EDTA) and gently inverted several times. A complete blood count: WBC with details of lymphocytes, monocytes and polynuclear cells (neutrophils, eosinophils and basophils); Red blood cells (RBC); Hematocrit (HCT); Hemoglobin (HGB); Reticulocytes (RETIC); Mean corpuscular volume (MCV); Mean Corpuscular Hemoglobin (MCH); Mean Corpuscular Hemoglobin Concentration (MCHC); platelets count (PLT) was performed.
Whole blood sample for biochemistry analysis was collected at visit V1 (between Day -7 and Day 0), visit V3 (Day 30+3 days), Visit V4 (Day 60t 3 days) and Visit V5 (Day 90t 3 days).
Each time 1.3 ml of the peripheral whole blood was collected on lithium heparin tube and gently inverted several times. Next, sample was centrifuged at 2500 G for 5 minutes at room temperature and heparin plasma will be collected. The following biochemical parameters: Albumin, Alanine transaminase (ALT), Alkaline phosphatase (ALP), creatinine, globulins, glucose, Total proteins, Urea, Albumin/globulin ratio and urea/creatinine ratio were analyzed.

[1] = dogs with periodontal disease, 90-day treatment
[2] = Day 30, 25 or 50 mg/kg/day oral
[3] = Day 60, 25 or 50 mg/kg/day oral
[4] = Day 90, all dogs 50 mg/kg/day for last 30 days

**Q.** Which “death and Serious Adverse Event (SAE)” value [1] does the source give for `CC(C)C[C@H](NC(=O)c1ccc(-c2csc(N3CCN(C)CC3)n2)cc1)C(=O)N1C[C@H](F)[C@H]2OCC(O)(O)[C@H]21` [MIV-701 besylate salt, N-[(S)-1-((3aS,6S,6aS)-6-Fluoro-S-oxo-hexahydro-furo[3,2-b]pyrrole-4-carbony)-3-methyl-butyl]-4-[2-(4-methyl-piperazin-1-yl)-thiazol-4-yl]-benzamide benzenesulphonate] here?
**A.** No death and no Serious Adverse Event (SAE)

**Q.** What about the “evolution of blood cell count and clinical biochemistry parameters” value [1] of the same molecule?
**A.** No safety concern

**Q.** What about the tolerance (dogs with periodontal disease, once-a-day 25 and 50 mg/kg/day, 90-day treatment period) of the same molecule?
**A.** well tolerated

**Q.** And the Alanine transferase [2]?
**A.** 37,9 U/L

**Q.** What about the Albumin [2] of the same molecule?
**A.** 26,3 g/L

**Q.** And the Albumin/Globulin ratio [2]?
**A.** 0,61

**Q.** What about the Alkalin phosphatase [2] of the same molecule?
**A.** 31,5 U/L

**Q.** What about the BUN/Creatinine ratio [2] of the same molecule?
**A.** 17,8

**Q.** What about the Basophil [2] of the same molecule?
**A.** 0,03 10^9/L

**Q.** What about the Creatinine [2] of the same molecule?
**A.** 57,8 µmol/L

**Q.** And the Eosinophil [2]?
**A.** 1,3 10^9/L

**Q.** And the Globulin [2]?
**A.** 43,6 g/L

**Q.** And the Glucose [2]?
**A.** 5,3 mmol/L

**Q.** What about the HCT [2] of the same molecule?
**A.** 41,8%

**Q.** What about the HGB [2] of the same molecule?
**A.** 14,2 g/DL

**Q.** What about the Lymphocyte [2] of the same molecule?
**A.** 1,7 10^9/L

**Q.** And the MCH [2]?
**A.** 21,5 pg

**Q.** And the MCHC [2]?
**A.** 33,9 g/DL

**Q.** And the MCV [2]?
**A.** 63,5 fL

**Q.** And the Monocyte [2]?
**A.** 0,8 10^9/L

**Q.** What about the Neutrophil [2] of the same molecule?
**A.** 7,7 10^9/L

**Q.** What about the Platelet [2] of the same molecule?
**A.** 381,3

**Q.** What about the RBC [2] of the same molecule?
**A.** 6,6 10^12/L

**Q.** And the Reticulocyte [2]?
**A.** 32,0 K/µL

**Q.** And the Total calcium [2]?
**A.** 2,4 mmol/L

**Q.** What about the Total protein [2] of the same molecule?
**A.** 7,0 g/dL

**Q.** What about the Urea [2] of the same molecule?
**A.** 4,0 mmol/L

**Q.** And the Alanine transferase [3]?
**A.** 41,7 U/L

**Q.** What about the Albumin [3] of the same molecule?
**A.** 26,9 g/L

**Q.** And the Albumin/Globulin ratio [3]?
**A.** 0,65

**Q.** And the Alkalin phosphatase [3]?
**A.** 31,6 U/L

**Q.** And the BUN/Creatinine ratio [3]?
**A.** 21,7

**Q.** What about the Basophil [3] of the same molecule?
**A.** 0,03 10^9/L

**Q.** And the Creatinine [3]?
**A.** 62,7 µmol/L

**Q.** And the Eosinophil [3]?
**A.** 1,2 10^9/L

**Q.** What about the Globulin [3] of the same molecule?
**A.** 40,6 g/L

**Q.** And the Glucose [3]?
**A.** 5,7 mmol/L

**Q.** And the HCT [3]?
**A.** 40,0%

**Q.** What about the HGB [3] of the same molecule?
**A.** 13,6 g/DL

**Q.** And the Lymphocyte [3]?
**A.** 1,7 10^9/L

**Q.** What about the MCH [3] of the same molecule?
**A.** 21,8 pg

**Q.** And the MCHC [3]?
**A.** 33,8 g/DL

**Q.** What about the MCV [3] of the same molecule?
**A.** 64,6 fL

**Q.** And the Monocyte [3]?
**A.** 0,7 10^9/L

**Q.** What about the Neutrophil [3] of the same molecule?
**A.** 7,0 10^9/L

**Q.** What about the Platelet [3] of the same molecule?
**A.** 384,8

**Q.** What about the RBC [3] of the same molecule?
**A.** 6,2 10^12/L

**Q.** What about the Reticulocyte [3] of the same molecule?
**A.** 22,9 K/µL

**Q.** And the Total calcium [3]?
**A.** 2,3 mmol/L

**Q.** What about the Total protein [3] of the same molecule?
**A.** 6,8 g/dL

**Q.** And the Urea [3]?
**A.** 5,4 mmol/L

**Q.** What about the Alanine transferase [4] of the same molecule?
**A.** 36,8 U/L

**Q.** What about the Albumin [4] of the same molecule?
**A.** 28,3 g/L

**Q.** What about the Albumin/Globulin ratio [4] of the same molecule?
**A.** 0,65

**Q.** And the Alkalin phosphatase [4]?
**A.** 45,4 U/L

**Q.** And the BUN/Creatinine ratio [4]?
**A.** 22,8

**Q.** And the Basophil [4]?
**A.** 0,02 10^9/L

**Q.** What about the Creatinine [4] of the same molecule?
**A.** 60,2 µmol/L

**Q.** What about the Eosinophil [4] of the same molecule?
**A.** 1,2 10^9/L

**Q.** What about the Globulin [4] of the same molecule?
**A.** 43,0 g/L

**Q.** What about the Glucose [4] of the same molecule?
**A.** 5,7 mmol/L

**Q.** What about the HCT [4] of the same molecule?
**A.** 40,1%

**Q.** And the HGB [4]?
**A.** 13,6 g/DL

**Q.** What about the Lymphocyte [4] of the same molecule?
**A.** 1,7 10^9/L

**Q.** What about the MCH [4] of the same molecule?
**A.** 22,2 pg

**Q.** What about the MCHC [4] of the same molecule?
**A.** 33,8 g/DL

**Q.** And the MCV [4]?
**A.** 65,7 fL

**Q.** What about the Monocyte [4] of the same molecule?
**A.** 0,9 10^9/L

**Q.** What about the Neutrophil [4] of the same molecule?
**A.** 8,3 10^9/L

**Q.** And the Platelet [4]?
**A.** 423,0

**Q.** What about the RBC [4] of the same molecule?
**A.** 6,2 10^12/L

**Q.** What about the Reticulocyte [4] of the same molecule?
**A.** 29.5 K/µL

**Q.** And the Total calcium [4]?
**A.** 2,4 mmol/L

**Q.** And the Total protein [4]?
**A.** 7,1 g/dL

**Q.** And the Urea [4]?
**A.** 5,4 mmol/L

**Q.** What about the “dogs with one episode of diarrhea of mild intensity for 2 days” value (of 10 dogs, spontaneously resolved under treatment) of the same molecule?
**A.** 2 dogs
